Assay results reported in patent publication US20230364069A1, “METHOD FOR TREATING NON-ALCOHOLIC STEATOHEPATITIS THROUGH CO-ADMINISTRATION OF CURCUMIN DERIVATIVE AND TGF-B RECEPTOR INHIBITOR” (UNIVERSITY INDUSTRY FOUNDATION, YONSEI UNIVERSITY WONJU …, priority 2021, published 2023).

Legend:
[1] = test system: C57BL/6 mice in which steatohepatitis was induced with a methionine-choline deficient diet; test: Steatohepatitis animal model (MCD), curcumin 5-8 and high-concentration EW-7197 (40 mg/kg); assay type: in vivo, mouse; settings: for fat accumulation in the liver tissues / fibrosis of liver tissues: MCD-fed mice, EW-7197 40 mg/kg, Western blotting, FIGS. 19 to 24; for fat accumulation in the liver tissues: H&E; for fibrosis of liver tissues: Picrosirius red, Masson's trichrome
Procedure: 8-week-old male C57BL/6 mice weighing 20 to 25 g were purchased from Dae Han Bio Link Co., Ltd. (Chungbuk). Mice were acclimatized for one week under room temperature (25° C.±2° C.) in 60%±5% humidity and a 12-hour light/dark cycle. Mice were fed with a normal diet (Research Diets, RD) and allowed to drink water freely. Afterwards, the mice were randomly divided into five groups according to the fed diets or administered drugs, and the five groups were a group which was fed with a normal diet (Con), a group which was fed with a methionine-choline deficient diet (MCD), a group which was fed with a mixture of an MCD and curcumin 5-8 (1 g of curcumin 5-8 per 1 kg of the diet) (MCD+Cur5-8), a group which was fed with an MCD and to which EW-7197 was orally administered (MCD+EW), and a group which was fed with a mixture of an MCD and curcumin 5-8 and to which EW-7197 was orally administered together (MCD+EW+Cur5-8) (n=10).
EW-7197 was administered directly to the stomach by an oral administration method once every two days at 40 mg/kg. Body weights were measured every week during the experiment period, and liver tissues were harvested after 6 weeks and stored at −80° C. All experiments were performed with the approval of the Institutional Animal Care and Use Committee at Wonju College of Medicine of Yonsei University (YWC-200907-1).
In order to confirm the physiological changes in case of co-administration of a curcumin derivative (Cur5-8) and a TGF-β receptor inhibitor (EW-7197), the liver weights and the concentrations of TG, TC, AST, ALT, and γ-GT in serum were measured. In addition, hydroxyprolin expression was checked as a fibrosis marker in the liver tissues.
Specifically, the weights of the liver tissues harvested in Examples 2-1 and 2-2 were measured before storage.
In Examples 2-1 and 2-2, blood was collected after the experiment was completed, and concentrations of TG, TC, AST, ALT, and γ-GT in serum were measured. In order to measure blood glucose, triglyceride, cholesterol, and AST and ALT concentrations, ELISA kit of Asan Pharm. Co., Ltd. was purchased, and the measuring was performed. γ-GT in the liver was measured by using Mak089 of Sigma-Aldrich, and hydroxyproline was measured by using STA-675 ELISA kit of Cell Biolabs, Inc.
In addition, the hydroxyprolin expression was checked in the liver tissues harvested in Examples 2-1 and 2-2.
In order to check effects of inhibiting fat accumulation in liver tissues and fibrosis in liver tissues in case of co-administration of a curcumin derivative (Cur5-8) and a TGF-β receptor inhibitor (EW-7197), the liver tissues were stained.
The liver tissues harvested in Examples 2-1 and 2-2 were fixed with 10% formaldehyde, the formaldehyde was washed out with running water for more than 12 hours, and then washing was performed with 60% ethanol at a one-hour interval, with 70% ethanol at a one-hour interval, and with 100% ethanol at a one-hour interval. Then, the transparency process in xylene was performed three times for one hour each, and the infiltration process in paraffin was performed twice for one hour each. Then, the paraffin block was cut to a thickness of about […] to obtain slices. After deparaffinization, the slices were stained with hematoxylin and eosin (H&E staining), and blood vessels and lipid droplets in the liver tissues were checked. […]
In addition, H&E-stained liver slices were evaluated by using the NAFLD activity score (NAS) system. […]

[2] = test system: liver fibrosis model; settings: carbon tetrachloride (CCL4) administration and bile duct ligation; previous studies; cited from earlier work
[3] = test system: lung fibrosis model; settings: bleomycin (BLM); previous studies; cited from earlier work

Structure (SMILES)	fat accumulation in the liver tissues [1]	fibrosis of liver tissues [1]	liver damage [2]	tissue fibrosis (lung) [3]	AST (aspartate transaminase) ([1]; MCD-fed C57BL/6 mice, 6 weeks, EW-7197 40 mg/kg oral once every two days, curcumin 5-8 1 g per 1 kg diet) [IU/L]
Cc1cccc(-c2[nH]c(CNc3ccccc3F)nc2-c2ccc3ncnn3c2)n1 [EW-7197, N-(2-fluorophenyl)-5-(6-methyl-2-pyridinyl)-4-[1,2,4]triazolo[1,5-a]pyridin-6-yl-1H-imidazole-2-methanamine]	not inhibited	inhibited	suppressing liver damage	suppressing tissue fibrosis	
COc1cc(/C=C/C(=O)c2cccc(NC(=O)C(C)C)c2)ccc1O [Cur5-8, N-{3-[(2E)-3-(4-hydroxy-3-methoxyphenyl)prop-2-enoyl]phenyl}-2-methylpropanamide]	reduced	not improved			119.9 ± 3.80
